According to patent US9581587B2, “Sperm staining and sorting methods” (INGURAN, LLC, priority 2011, dated 2017):

How the values were obtained:
[1] = system: membrane compromised sperm; assay: Dead gate intensity divided by live gate intensity, flow cytometer (Example 5); type: cell-based; conditions: for ability to create a dead gate population (ordering of the four dyes): from dead and live intensity data of Table 13
Method: (§1) A single Jersey bull was collected at an initial sperm concentration 1900×10^6 sperm/ml in a volume of 5 ml. The progressive motility of the sperm was 65% with normal morphologies greater than 65%.
(§2) The entire ejaculate of sperm was suspended in first staining buffer, specifically a 7.4 pH TALP described in TABLE 1, to a concentration of 160×10^6 sperm per mL (determined on nucleocounter) and divided into three aliquots of about 20 mL into 50 mL Falcon tubes and pre-warmed for 10 minutes at 34° C. The DNA selective fluorescent dye, Hoechst 33342, was added and samples were held at 34° C. for 60 minutes. 3 different Hoechst 33342 Stain Levels were used=12 μL, 14 μL and 16 μL per 2 mL (effective concentrations of 48 μM, 56 μM, 64 μM).
(§3) Preparation of the second buffer including the dead quenching dye—A 2 L bag of TALP, described in TABLE 1, was adjusted to pH 5.60 using HCl and then sterile filtered. […] For each of the four dyes tested (R40-red food dye No. 40, Y5—yellow food dye No. 5, Y6—yellow food dye No. 6 and PR—phenol red), an appropriate number of milligrams of each powder was placed in a Erlenmeyer Flask and then an exact amount of TALP pH 5.60 was added to create a 250 μM concentration of the dye. The result was a working TALP stock for each dye with a 100% (125 μM) relative amount of dye 50% relative (62.5 μM) and 20% relative (25 μM) solutions were made by dilution of 100% by TALP pH 5.60.
(§4) Single tubes of stained sperm at each of the three Hoechst 33342 concentrations were treated with TALP pH 5.60 which had no dead quenching dye present. Single tubes using Vitamin B12 (red colored chemical) with stock concentration of 15 μM (12% relative) were tested.
(§5) After this “bulk” staining for 60 minutes, 1 mL aliquots of stained sperm were combined with 1 mL aliquots of the second buffer including the dead quenching dyes. Samples sat for approximately 30 minutes at room temperature before being analyzed on a MoFlo SX (Beckman Coulter, USA) sperm sorting flow cytometer. Event rates were held as close to 13,000 as possible at the point of data acquisition.
(§6) The total number of individual treatments was 42 tubes, each containing 2 mL of stained sample. The alignment of the sorter was established using nuclei and confirmed with live sample from the 50% Red 40 series. Once good alignment was established, each tube was placed on the sorter long enough to establish a stabile dead gate population (about 30 seconds) and then a screenshot was taken and saved as a .jpeg image. This approach of rapidly documenting each sample is used to assure the most consistent alignment between all samples. Realignment of sorter will not cause differences in the intensities of live and dead gate populations but will cause differences in split quality.
(§7) FIG. 4 illustrates an example histogram. The ratio of dead gate intensity divided by live gate intensity is created by dividing the distance “A” by the distance “B” shown as a percentage. Lower values mean higher levels of quenching. The ratio of peak height divided by valley height is created by dividing the distance “C” by the distance “D”. A value of 1.00 means “no split” while higher values mean “better splits”.

[2] = system: membrane compromised sperm; assay: Dead gate intensity, yellow 5 and phenol red at higher concentrations (Example 6); type: cell-based, Jersey bull; conditions: for Intensity: Hoechst 12 μL/2 mL
Method: (§8) A single Jersey bull was collected at an initial sperm concentration 1810×10^6 sperm/ml in a volume of 3.9 ml. The progressive motility of the sperm was 65% with normal morphologies greater than 50%.
(§9) Sperm were suspended at 320 million per mL in 30 mL a first buffer, (TALP described in table 1 at a pH 7.4) with 12 μL of Hoechst 33342 per 2 mL (48 μM) of stain and incubated for 1 hour at 34° C. Stained sperm was then placed as 1 mL aliquots in sample tubes and a 1 mL volume of the appropriate TALP was added. The same second buffer was used as example 1, namely a modified 5.60 pH TALP.
(§10) Each of the stained samples was sorted on a MoFlo SX (Beckman Coulter, USA) as described in Example 6. Screen shots were taken and the dead gate intensity and the split quality were measured in the same way described in Example 1 and recorded in TABLE 14.

sperm [3] = assay: Split quality PV (Example 6); type: cell-based, Jersey bull; conditions: for PV: Hoechst 12 μL/2 mL, resulting pH 6.70
Method: as §8, §9, §10

sperm [4] = assay: Split quality, height of peak divided by height of valley (Example 5); type: cell-based, Jersey bull
Method: as §1, §2, §3, §4, §5, §6, §7

sperm [5] = assay: Post thaw motility Deer (Example 3); type: cell-based; conditions: post thaw 0 HR; RED TALP with 16 μL Hoechst 33342, Y6 with 14 μL
Method: Each of deer and elk were collected in the Tris-egg yolk catch fluid described as a catch media in Example 1, and shipped for sorting.
A portion of each of the deer and the elk were stained by the red food dye No. 40 treatment 40% with 16 μL Hoechst 33342 and the yellow food dye No. 6 treatment with 14 μL Hoechst 33342 as described in Example 1.
Samples were each bulk sorted with the same machine and parameters described in Example 1. Both sorted X and sorted Y sperm were collected into a single catch. The sorted samples were then frozen like those described in Example 1.
Frozen thawed samples were then tested for post thaw motilities and post thaw DNA fragmentation. Post thaw motilities were slightly higher in Elk sorted with a yellow quencher, while a more significant difference existed in progressive motility. In Table 10, post thaw DNA fragmentation in Elk can be seen at about double after 48 hours when red food dye No. 40 is compared to yellow food dye No. 6 as a dead quencher.

[6] = dye 25 μM, Average over Hoechst levels
[7] = dye 62.5 μM, Average over Hoechst levels
[8] = dye 62.5 μM, Hoechst 12 μL/2 mL
[9] = dye 62.5 μM, Hoechst 14 μL/2 mL
[10] = dye 62.5 μM, Hoechst 16 μL/2 mL
[11] = dye 125 μM, Average over Hoechst levels

SMILES	Dead Intensity [1, 6]	Dead Intensity ([1]; dye 25 μM, Hoechst 12 μL/2 mL)	Dead Intensity ([1]; dye 25 μM, Hoechst 14 μL/2 mL)	Dead Intensity ([1]; dye 25 μM, Hoechst 16 μL/2 mL)	Dead Intensity [1, 7]	Dead Intensity [1, 8]	Dead Intensity [1, 9]	Dead Intensity [1, 10]	Dead Intensity [1, 11]	Dead Intensity ([1]; dye 125 μM, Hoechst 12 μL/2 mL)	Dead Intensity ([1]; dye 125 μM, Hoechst 14 μL/2 mL)	Dead Intensity ([1]; dye 125 μM, Hoechst 16 μL/2 mL)	Height of Peak/Height of Valley (sperm [4]; dye 25 μM, Hoechst 16 μL/2 mL)	Height of Peak/Height of Valley (sperm [4]; [10])	ability to create a dead gate population (ordering of the four dyes) [1]	Intensity ([2]; dye 62.5 μM, resulting pH 6.70)	PV (sperm [3]; dye 62.5 μM)	Progressive (sperm [5])	Height of Peak/Height of Valley (sperm [4]; dye 125 μM, Hoechst 14 μL/2 mL)	further results
O=S1(=O)OC(c2ccc(O)cc2)(c2ccc(O)cc2)c2ccccc21 [Phenol Red, phenolsulfonphthalein]	94%	94%	97%	90%	87%	90%	90%	80%	79%	80%	80%	78%	1.00	1.00						amount of dye needed for a similar dead gate intensity ratio as red food dye No. 40 and yellow food dye No. 6 [2]: twelve; Intensity ([2]; dye 125 μM, resulting pH 6.70): 79%; Intensity ([2]; dye 250 μM, resulting pH 6.70): 70%; Intensity ([2]; dye 500 μM, resulting pH 6.70): 67%; Intensity ([2]; dye 750 μM, resulting pH 6.70): 55%; Intensity ([2]; dye 875 μM, resulting pH 6.70): 45%; Intensity ([2]; dye 1250 μM, second buffer pH 5.60, resulting pH 6.70): 41%; split improvement in understained sample (sperm [3]; 12 μL/2 mL Hoechst 33342, control samples had no split): created a split improvement; PV (sperm [3]; dye 125 μM): 1.00; Height of Peak/Height of Valley (sperm [4]; dye 125 μM, Hoechst 16 μL/2 mL): 1.00
COc1cc(S(=O)(=O)O)c(C)cc1N=Nc1c(O)ccc2cc(S(=O)(=O)O)ccc12 [Red 40, 6-hydroxy-5-[(2-methoxy-5-methyl-4-sulfophenyl)azo]-2-naphthalenesulfonic acid, reference compound]	68%	68%	72%	65%	52%	53%	53%	50%	38%	37%	41%	35%	1.00	1.00	about equal and better than the remaining dyes	53%	1.00	43.0	2.00	Height of Peak/Height of Valley (sperm [4]; dye 25 μM, Average for 12 μL and 14 μL stain series): 2.00
O=S(=O)([O-])c1ccc(N=Nc2c(O)ccc3cc(S(=O)(=O)[O-])ccc23)cc1.[Na+].[Na+] [Yellow 6, Disodium 6-hydroxy-5[(4-sulfophenyl)azo]-2-naphthalenesulfononate]	71%	68%	74%	70%	51%	50%	52%	52%	39%	37%	40%	40%		1.00	about equal and better than the remaining dyes	50%	1.00	53.2	1.80	Motile (sperm [5]): 67.5; Height of Peak/Height of Valley (sperm [4]; [8]): 1.70
